Experimental data as given in US12662451B2, “Chemical compounds and uses thereof” (GLAXOSMITHKLINE INTELLECTUAL PROPERTY (NO.4) LIMITED, priority 2023, dated 2026).
Structures can show the parent of a compound that is named as a salt.

Key:
[1] = target: T1, recombinant full-length WRN protein (1-1432) (Homo sapiens, UniProt Q14191); test: WRN unwinding activity, fluorogenic 384-well assay (Example A); format: biochemical; conditions: WRN unwinding activity, 4 hr; Table 2; read-out: 4 hr UNW pIC50 (converted)
T1 construct: recombinant full-length WRN protein (1-1432)
T1 sequence (Q14191 whole entry): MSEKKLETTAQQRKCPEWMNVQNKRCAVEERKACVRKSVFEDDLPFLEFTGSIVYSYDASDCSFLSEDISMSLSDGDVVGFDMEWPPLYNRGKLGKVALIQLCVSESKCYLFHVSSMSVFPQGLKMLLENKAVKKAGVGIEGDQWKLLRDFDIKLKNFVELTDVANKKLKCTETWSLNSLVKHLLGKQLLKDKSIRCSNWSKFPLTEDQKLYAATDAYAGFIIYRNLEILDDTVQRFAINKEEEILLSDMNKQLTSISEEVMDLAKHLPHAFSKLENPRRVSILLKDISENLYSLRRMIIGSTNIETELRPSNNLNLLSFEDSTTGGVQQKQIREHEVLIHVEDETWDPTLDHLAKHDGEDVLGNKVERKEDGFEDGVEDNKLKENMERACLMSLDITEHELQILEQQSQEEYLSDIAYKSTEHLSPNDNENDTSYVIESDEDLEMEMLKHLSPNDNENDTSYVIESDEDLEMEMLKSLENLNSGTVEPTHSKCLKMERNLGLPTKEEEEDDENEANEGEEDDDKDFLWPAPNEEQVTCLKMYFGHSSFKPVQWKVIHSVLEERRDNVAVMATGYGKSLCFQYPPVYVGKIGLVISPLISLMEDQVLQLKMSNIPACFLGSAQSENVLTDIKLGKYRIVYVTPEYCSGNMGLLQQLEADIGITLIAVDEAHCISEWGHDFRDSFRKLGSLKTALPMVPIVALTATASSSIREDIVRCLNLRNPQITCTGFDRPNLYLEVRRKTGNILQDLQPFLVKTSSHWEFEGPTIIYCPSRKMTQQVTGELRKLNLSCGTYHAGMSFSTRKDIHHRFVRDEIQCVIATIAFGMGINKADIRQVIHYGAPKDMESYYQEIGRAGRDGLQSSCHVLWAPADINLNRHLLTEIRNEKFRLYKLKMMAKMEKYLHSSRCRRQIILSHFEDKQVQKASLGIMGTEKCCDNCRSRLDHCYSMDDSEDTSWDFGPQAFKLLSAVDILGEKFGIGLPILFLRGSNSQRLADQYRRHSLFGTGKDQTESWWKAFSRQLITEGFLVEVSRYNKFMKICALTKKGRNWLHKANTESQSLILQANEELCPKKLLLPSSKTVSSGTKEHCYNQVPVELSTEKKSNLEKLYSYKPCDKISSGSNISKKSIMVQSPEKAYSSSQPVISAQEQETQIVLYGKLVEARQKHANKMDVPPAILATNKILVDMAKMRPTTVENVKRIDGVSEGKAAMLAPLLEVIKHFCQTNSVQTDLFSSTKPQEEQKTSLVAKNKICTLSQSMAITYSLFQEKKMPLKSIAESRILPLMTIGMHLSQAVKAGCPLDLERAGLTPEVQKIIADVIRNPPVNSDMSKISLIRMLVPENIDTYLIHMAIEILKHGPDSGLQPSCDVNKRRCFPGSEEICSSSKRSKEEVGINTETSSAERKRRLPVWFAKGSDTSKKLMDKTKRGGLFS
In short: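 200 pM enzyme (2× stock) preincubated with compound 4 h at ambient temperature, then 200 μM ATP and 12 nM quenched TAMRA-labelled dsDNA (2× stocks) added for 60 min; EDTA-quenched. Buffer 25 mM Tris pH 8.0, 5 mM NaCl, 2 mM MgCl2. Fluorescence at 525/598 nm; pIC50 from four-parameter fit.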

[2] = test system: SW48 human colorectal cancer cells (MSI-H cancer cells); test: SW48 cell viability, CellTiter-Glo, 120 hours (Example B); conditions: Table 2; for CC50: Homo sapiens, SW48, 120 h, read-out: SW48 pCC50, SW48 cell viability, 120 hours incubation (converted)

Row | SMILES | IC50 [1] | CC50 [2] | SW48 pCC50 ([2]; SW48 cell viability, 120 hours incubation)
1 | CN1CCC[C@@H](c2cccc(S(=O)(=O)N(C)c3ccc([C@H]4CCC[C@@H](COc5ccc(C(F)(F)F)cc5)[C@@H]4C(=O)O)cc3)c2)C1 (single isomer, unassigned) [Example 218, rel-(1R,2S,6R)-2-(4-((N-methyl-3-((R*)-1-methylpiperidin-3-yl)phenyl)sulfonamido)phenyl)-6-((4-(trifluoromethyl)phenoxy)methyl)cyclohexane-1-carboxylic acid] | 39.8 nM | 15800 nM | 
2 | CCO[C@@H]1C[C@H](COc2ccc(C(F)(F)F)cc2)[C@@H](C(=O)O)[C@H](c2ccc(N(C)S(=O)(=O)c3ccc4c(c3)nc(C)n4C)cc2)C1 (single isomer, unassigned) [Example 220] | 316 nM | 15800 nM | 
3 | O=C(O)[C@@H]1[C@@H](C(=O)Nc2ccc(C(F)(F)F)cc2F)CCC[C@H]1c1ccc(NS(=O)(=O)c2ccc3[nH]cnc3c2)cc1 (single isomer, unassigned) [Example 225] | 0.251 nM | 7940 nM | 
4 | N#Cc1cc([C@H]2CCC[C@@H](C(=O)Nc3ccc(C(F)(F)F)cc3F)[C@@H]2C(=O)O)ccc1Br (single isomer, unassigned) [Example 230] | 100 nM | 7940 nM | 
5 | Cc1nc2cc(S(=O)(=O)N3CCOc4cc([C@H]5CCC[C@@H](C(=O)Nc6ccc(C(F)(F)F)cc6F)[C@@H]5C(=O)O)ccc43)ccc2n1C (single isomer, unassigned) [Example 241] | 5.01 nM | 1260 nM | 
6 | Cc1nc2cc(S(=O)(=O)N(C)c3ccc([C@H]4CCC[C@@H](C(=O)Nc5ccc(C(F)(F)F)cc5F)[C@@H]4C(=O)O)cc3)cc([C@@H]3CCCNC3)c2n1C (single isomer, unassigned) [Example 268, (1R,2R,6S)-2-((2-fluoro-4-(trifluoromethyl)phenyl)carbamoyl)-6-(4-((N,1,2-trimethyl-7-((S*)-piperidin-3-yl)-1H-benzo[d]imidazole)-5-sulfonamido)phenyl)cyclohexane-1-carboxylic acid hydrochloride] | 0.794 nM | 15800 nM | 
7 | Cc1nc2cc(S(=O)(=O)N(C)c3ccc([C@@H]4CCC[C@H](C(=O)Nc5ccc(C(F)(F)F)cc5F)[C@H]4C(=O)O)cc3F)ccc2n1C (single isomer, unassigned) [Example 369] | 631 nM | 12600 nM | 
8 | Cc1nc2cc(S(=O)(=O)N(C)c3ccc([C@H]4CCC[C@@H](C(=O)Nc5ccc(C(F)(F)F)cc5F)[C@@H]4C(=O)O)c(F)c3)ccc2n1C (single isomer, unassigned) [Example 375] | 100 nM |  | 4.7

Now from value to compound, other results behind:

Row | IC50 [1] | SMILES | CC50 [2] | SW48 pCC50 ([2]; SW48 cell viability, 120 hours incubation)
9 | 631 nM | Cc1nc2cc(S(=O)(=O)N(C)c3ccc([C@@H]4CC[C@H](C)[C@H](C(=O)Nc5ccc(C(F)(F)F)cc5F)[C@H]4C(=O)O)cc3)ccc2n1C (single isomer, unassigned) [Example 236] | 7940 nM | 
10 | 100 nM | Cc1nc2cc(S(=O)(=O)N(C)c3ccc([C@@H]4C[C@H](C#N)C[C@H](C(=O)Nc5ccc(C(F)(F)F)cc5F)[C@H]4C(=O)O)cc3)ccc2n1C (single isomer, unassigned) [Example 286] | 12600 nM | 
11 | 1580 nM | Cc1nc2cc(S(=O)(=O)N(C)c3ccc([C@@H]4C[C@H](OCC5CC6CCC(C5)O6)C[C@H](C(=O)Nc5ccc(C(F)(F)F)cc5F)[C@H]4C(=O)O)cc3)ccc2n1C (single isomer, unassigned) [Example 359] | 12600 nM | 
12 | 631 nM | Cc1nc2cc(S(=O)(=O)N(C)c3ccc([C@@H]4C[C@H](OC(F)F)C[C@H](C(=O)Nc5ccc(C(F)(F)F)cc5F)[C@H]4C(=O)O)cc3)ccc2n1C (stereo in doubt) [Example 283, rel-(1R,2R,4R,6S)-4-(difluoromethoxy)-2-((2-fluoro-4-(trifluoromethyl)phenyl)carbamoyl)-6-(4-((N,1,2-trimethyl-1H-benzo[d]imidazole)-5-sulfonamido)phenyl)cyclohexane-1-carboxylic acid] | 20000 nM | 
